The record followed here is patent publication EP4638411B1, “PLASTICIZER” (priority 2022, dated 2024).

A short description of series [1]: Water content (DIN 51777-1). In kind it is physicochemical. An excerpt: (§1) Die nachfolgende Tabelle 3 gibt die Eigenschaften der wie oben beschriebenen Verbindungen wieder. Tabelle 3.
The nature of series [2]: Acid number (DIN EN ISO 2114). The class given is physicochemical.
Text: as §1

Series [3] is described as follows: Refractive index nD20 (DIN 51423-2). In kind it is physicochemical.
Text: as §1

Series [4] can be described thus: HCl residual stability of plasticized PVC films at 200 °C. Conditions: PVC film, 60 phr plasticizer. From the text:
Rezeptur: siehe nachfolgende Tabelle 5. Tabelle 5.
150 g PVC (Homopolymeres Suspensions-PVC, Markenname Inovyn® 271 PC); 90 g Weichmacher-Zusammensetzung und 3 g Ba/Zn-Stabilisator, Markenname Baerostab® UBZ 760 XLP RF wurden mit einem Handmixer bei Raumtemperatur vermischt. Die Mischung wurde anschließend auf einem ölbeheizten Labormischwalzwerk (Fa. Collin, Automatikwalzwerk Typ W250M, Durchmesser: 252 mm, Breite: 450 mm) plastifiziert und zu einem Walzfell verarbeitet. Die Temperatur der beiden Walzen betrug jeweils 180 °C; die Drehzahlen lagen bei 15 Umdrehungen/min. (vordere Walze) und 12 Umdrehungen/min. (hintere Walze); die Walzzeit betrug 5 Minuten. Der Walzenspalt wurde auf 0,5 mm eingestellt. Man erhielt so ein Walzfell mit einer Dicke von 0,53 mm. Das abgekühlte Walzfell wurde anschließend bei einer Temperatur von 190 °C und einem Druck von 150 bar innerhalb von 180 s auf einer Presse vom Typ "Laborplattenpresse 400 P" der Fa. Collin zu einer Weich-PVC-Folie mit einer Dicke von 0,50 mm verpresst. Unter Beibehaltung des Pressdrucks wurde die Pressfolie innerhalb von 10 Minuten auf ca. 40 °C abgekühlt.
Die Bestimmung der HCl-Reststabilität erfolgt nach DIN EN 60811-405 (VDE 0473-811-405): Als Prüfgerät wird ein Metallblock-Thermostat von Liebisch Labortechnik bei einer Prüftemperatur von 200 °C verwendet. Es wird immer eine 3-fach Bestimmung vorgenommen. Ca. 50 mg der Walzfolien werden abgewogen, auf 3 cm Länge zugeschnitten und im unteren Teil des Glasröhrchens positioniert. Am oberen Ende des Glasröhrchens wird ein ca. 10 mm langer Indikatorpapierstreifen (Lackmusspapier) so positioniert, dass ca. 2 mm herausstehen. Die so präparierten Glasröhrchen werden in den Metallblock positioniert und die Zeit notiert, bis ein Farbumschlag in Richtung Rot auftritt. Aus den drei Messwerten der drei Proben wird der arithmetische Mittelwert gebildet.

A short description of series [5]: Density at 20 °C (DIN 51757 method 4). The class given is physicochemical. As to conditions: DIN 51757 Verf. 4.
Text: as §1

Series [6] in a line: Viscosity at 20 °C (DIN 51562-1). The class given is physicochemical.
Text: as §1

A short description of series [7]: Dissolution (gelling) temperature of PVC in plasticizer, plate/plate rheometer, temperature at viscosity maximum. As to conditions: 5 phr PVC, 95 phr plasticizer, 2 phr Ba-Zn stabilizer; 5 °C/min; mean of four measurements. In kind it is physicochemical. An excerpt: Anwendungstechnische Prüfungen: II.a) Bestimmung der Lösetemperatur der offenbarungsgemäßen Weichmacher-Zusammensetzungen: Zur Bestimmung der Lösetemperatur der offenbarungsgemäßen Weichmacher-Zusammensetzungen wurden etwa 10 Gramm einer Mischungen nach folgender Rezeptur (siehe Tabelle 4) hergestellt. Die Mischung wird mit einer Pipette aufgerührt und dann sofort ca. 30 Tropfen der homogenen Mischung auf das Platte-Platte-Messsystem gegeben. Tabelle 4.
Die Viskositätsmessungen wurden mit einem beheizbaren Oszillations- und Rotations-Rheometer MCR 302 von Anton Paar in einem Rotationsversuch durchgeführt.
Die Messung erfolgte in zwei Rampen. Die erste Rampe für die Dauer von 120 s bei D=10 (1/s) und 30 °C dient zum Temperieren der Probe. Die zweite Rampe bei D=10 (1/s) und kontinuierlicher Temperatursteigerung von 5 °C min ist dann die eigentliche Messung. Der Abbruch erfolgte manuell, nachdem das Viskositätsmaximum überschritten war. Als Ergebnis der Messung wird die Temperatur ermittelt, bei der das Maximum der Viskosität erreicht ist. Diese Messungen werden insgesamt viermal durchgeführt und der arithmetische Mittelwert aller vier Messungen als das Endergebnis gewertet. Il.b) Herstellung und Prüfung von Weich-PVC-Folien hergestellt unter Einsatz erfindungsgemäßer Weichmacher-Zusammensetzungen

Take “4-Oxoheptandisäure-di-isotridecylester [Verbindung I.6]”: the Wassergehalt in series [1] was 0,016 Gew.-%. The Säurezahl in series [2] is given as 0,31 mg KOH/g. For the same molecule, the “Brechzahl, n^D20” value in series [3] was 1,4605. In series [4], this molecule came in with an HCl-Reststabilität of 12 min. Moreover, in series [5], the “Dichte, 20 °C” value is 0,9365 g/cm^3. Besides, in series [6], the “Viskosität, 20 °C” value came to 101 mPa·s. The same molecule yielded a Lösetemperatur in series [7] of 162 °C.

In the case of `CC(C)CCCC(C)CCOC(=O)CCC(=O)CCC(=O)OCCC(C)CCCC(C)C` (stereo not shown) [Verbindung I.2, 4-Oxoheptandisäure-di-(3,7-dimethyloctylester)], the Wassergehalt in series [1] was 0,013 Gew.-%. Also, in series [2], the Säurezahl is 0,26 mg KOH/g. Further, the “Brechzahl, n^D20” value in series [3] is recorded as 1,5160. In addition, in series [4], the HCl-Reststabilität was 13,4 min. Also, the “Dichte, 20 °C” value in series [5] is recorded as 0,9456 g/cm^3. In series [6], the “Viskosität, 20 °C” value came to 52 mPa·s. For the same molecule, the Lösetemperatur in series [7] amounted to 147 °C.

Regarding `CCCCC(CC)COC(=O)CCC(=O)CCC(=O)OCC(CC)CCCC` (stereo not shown) [4-Oxoheptandisäure-di-(2-ethylhexylester), reference compound], the Wassergehalt in series [1] is given as 0,07 Gew.-%. In series [2], the Säurezahl is 1,5 mg KOH/g. Moreover, the “Brechzahl, n^D20” value in series [3] is on record as 1,4534. In addition, in series [4], the HCl-Reststabilität is recorded as 11,1 min. Also, the “Dichte, 20 °C” value in series [5] is recorded as 0,9661 g/cm^3. The “Viskosität, 20 °C” value in series [6] is listed as 32 mPa·s. The same molecule gave a Lösetemperatur in series [7] of 127 °C.

Take `CCCCCC(CCC)COC(=O)CCC(=O)CCC(=O)OCC(CCC)CCCCC` (stereo not shown) [Verbindung I.1, 4-Oxoheptandisäure-di-(2-propylheptylester)]: the Wassergehalt in series [1] is listed as 0,003 Gew.-%. The Säurezahl in series [2] is listed as 1,1 mg KOH/g. Also, in series [3], the “Brechzahl, n^D20” value is reported as 1,4553. In series [4], this molecule came in with an HCl-Reststabilität of 15 min. Further, the “Dichte, 20 °C” value in series [5] was 0,9473 g/cm^3. The “Viskosität, 20 °C” value in series [6] is 51 mPa·s. The molecule also gave a Lösetemperatur in series [7] of 139 °C.
